Measured values: ChEMBL document CHEMBL3351452, “Chemical synthesis, cytotoxicity, selectivity and bioavailability of 5α-androstane-3α,17β-diol derivatives” (Bioorg Med Chem, 2014)

Assays:
[1] = Cytotoxicity against mouse WEHI13 cells assessed as cell proliferation after 48 hrs by MTT assay; format: cell-based; settings: WEHI13, 48 h
HL-60 = test: Antiproliferative activity against human HL-60 cells assessed as reduction in cell growth after 24 hrs by MTS assay; format: functional, cell-based; settings: HL-60, 24 h
MCF7 = test: Antiproliferative activity against human MCF7 cells assessed as reduction in cell growth after 24 hrs by MTS assay; format: functional, cell-based; settings: MCF7, 24 h
T47D = test: Antiproliferative activity against human T47D cells assessed as reduction in cell growth after 24 hrs by MTS assay; format: functional, cell-based
LNCaP = test: Antiproliferative activity against human LNCAP cells assessed as reduction in cell growth after 24 hrs by MTS assay; format: functional, cell-based
[2] = Plasma concentration in Sprague-Dawley rat at 2.3 mg/kg, sc measured at 3 hrs by LC/MS/MS analysis; format: ADME, organism-based; design: dose 2.3 mg/kg, route subcutaneous
[3] = Plasma concentration in Sprague-Dawley rat at 2.3 mg/kg, sc measured at 12 hrs by LC/MS/MS analysis; format: ADME, organism-based; design: dose 2.3 mg/kg, route subcutaneous

| SMILES | IC50 [1] [nM] | IC50 (HL-60) [nM] | IC50 (MCF7) [nM] | IC50 (T47D) [nM] | IC50 (LNCaP) [nM] | concentration at 3 h [2] [ng/mL] | concentration at 12 h [3] [ng/mL] |
| --- | --- | --- | --- | --- | --- | --- | --- |
| C[C@]12CC[C@@H](O)C[C@@H]1CC[C@@H]1[C@@H]2CC[C@]2(C)[C@@H](O)CC[C@@H]12 [ANDROSTANDIOL] | > 10000 | – | – | – | – | – | – |
| C#C[C@]1(O)CC[C@H]2[C@@H]3CC[C@H]4C[C@H](O)[C@@H](N5CCN(C(=O)[C@@H]6CCCN6C(=O)c6cccc7ccccc67)CC5)C[C@]4(C)[C@H]3CC[C@@]21C | – | 7000 | 2300 | 8000 | 12000 | – | – |
| C#C[C@]1(O)CC[C@H]2[C@@H]3CC[C@H]4C[C@H](O)[C@@H](N5CCN(C(=O)[C@@H]6CCCN6C(=O)c6ccc7ccccc7c6)CC5)C[C@]4(C)[C@H]3CC[C@@]21C | 1700 | 1900 | 300 | 300 | 4500 | 185 | 50.2 |
| C[C@]12C[C@H](N3CCN(C(=O)[C@@H]4CCCN4C(=O)c4ccc5ccccc5n4)CC3)[C@@H](O)C[C@@H]1CC[C@@H]1[C@@H]2CC[C@]2(C)[C@@H](O)CC[C@@H]12 | – | 1600 | 100 | 100 | 40 | 163 | 3.1 |
| C[C@]12C[C@H](N3CCN(C(=O)[C@@H]4CCCN4C(=O)c4ccc5ccccc5n4)CC3)[C@@H](O)C[C@@H]1CC[C@@H]1[C@@H]2CC[C@]2(C)C(=O)CC[C@@H]12 | – | 600 | 1000 | 700 | 800 | 188 | 0.3 |
| C[C@]12C[C@H](N3CCN(C(=O)[C@@H]4CCCN4C(=O)c4ccc5ccccc5c4)CC3)[C@@H](O)C[C@@H]1CC[C@@H]1[C@@H]2CC[C@]2(C)[C@@H](O)CC[C@@H]12 | > 10000 | 400 | 500 | 400 | 1600 | 64.8 | 8.8 |
| C[C@]12C[C@H](N3CCN(C(=O)[C@@H]4CCCN4C(=O)C4CCCCC4)CC3)[C@@H](O)C[C@@H]1CC[C@@H]1[C@@H]2CC[C@]2(C)[C@@H](O)CC[C@@H]12 | 2700 | – | – | – | – | – | – |
| C[C@]12C[C@H](N3CCN(C(=O)[C@@H]4CCCN4C(=O)c4cc5ccccc5[n+]([O-])c4)CC3)[C@@H](O)C[C@@H]1CC[C@@H]1[C@@H]2CC[C@]2(C)[C@@H](O)CC[C@@H]12 | – | 800 | 900 | 1000 | > 10000 | 158 | 2.9 |
| C[C@]12C[C@H](N3CCN(C(=O)[C@@H]4CCCN4C(=O)c4ccc5ccccc5c4)CC3)[C@@H](O)C[C@@H]1CC[C@@H]1[C@@H]2CC[C@@]2(C)[C@H]1CC[C@]2(C)O | – | 4700 | 1200 | 2000 | > 10000 | 122 | 32 |
| C[C@]12C[C@H](N3CCN(C(=O)[C@@H]4CCCN4C(=O)c4ccc5ncccc5c4)CC3)[C@@H](O)C[C@@H]1CC[C@@H]1[C@@H]2CC[C@]2(C)[C@@H](O)CC[C@@H]12 | – | 4700 | 4900 | 7000 | > 10000 | 194 | 1.3 |
| COc1cccc2c1C(=O)c1c(O)c3c(c(O)c1C2=O)C[C@@](O)(C(=O)CO)C[C@@H]3O[C@H]1C[C@H](N)[C@H](O)[C@H](C)O1 [DOXORUBICIN] | 20 | 700 | > 10000 | 700 | 200 | – | – |
| C[C@]12C[C@H](N3CCN(C(=O)[C@@H]4CCCN4C(=O)c4cccc5ccccc45)CC3)[C@@H](O)C[C@@H]1CC[C@@H]1[C@@H]2CC[C@]2(C)C(=O)CC[C@@H]12 | – | 8500 | 8000 | 7000 | 10000 | – | – |
| CO[C@H]1CC[C@H]2[C@@H]3CC[C@H]4C[C@H](O)[C@@H](N5CCN(C(=O)[C@@H]6CCCN6C(=O)c6ccc7ccccc7c6)CC5)C[C@]4(C)[C@H]3CC[C@]12C | – | 4500 | 4500 | 5000 | 7000 | 33.3 | 7.6 |
| C[C@]12C[C@H](N3CCN(C(=O)[C@@H]4CCCN4C(=O)c4cc5ccccc5cn4)CC3)[C@@H](O)C[C@@H]1CC[C@@H]1[C@@H]2CC[C@]2(C)[C@@H](O)CC[C@@H]12 | 3000 | 1400 | 100 | 200 | 70 | 123 | 2.7 |
| C[C@]12C[C@H](N3CCN(C(=O)[C@@H]4CCCN4C(=O)c4cccc5ccccc45)CC3)[C@@H](O)C[C@@H]1CC[C@@H]1[C@@H]2CC[C@]2(C)[C@@H](O)CC[C@@H]12 | – | 3700 | 4800 | 5000 | 300 | – | – |
| C[C@]12C[C@H](N3CCN(C(=O)[C@@H]4CCCN4C(=O)c4cnc5ccccc5c4)CC3)[C@@H](O)C[C@@H]1CC[C@@H]1[C@@H]2CC[C@]2(C)[C@@H](O)CC[C@@H]12 | – | 4000 | 1200 | 7000 | > 10000 | 163 | 2.3 |
